Source: paper PMC9299796, “A Specialized Dehydrogenase Provides L‐Phenyllactate for FR900359 Biosynthesis” (Chembiochem, 2021)

System: FrsC
Conditions: 0.5 mM NADPH, pH 6, 30 °C, 1 μM FrsC, tag removed

O=C(O)C(=O)Cc1ccccc1 [phenylpyruvic acid]
Km: 1370 ± 410 µM
